In patent US11497752B2, “Compounds and uses thereof” (Foghorn Therapeutics Inc., priority 2018, dated 2022):

How the values were obtained:
[1] = biological target: BRG-1 (Homo sapiens, UniProt P51532); test: ATPase catalytic activity of BRG-1 (ADP-Glo in vitro biochemical assay); details: for BRG1 Max % Inhibition: Table 6
[2] = biological target: BRM (Homo sapiens, UniProt P51531); test: ATPase catalytic activity of BRM (ADP-Glo in vitro biochemical assay); details: for BRM Max % Inhibition: Table 6
BRM, sequence (P51531 whole entry): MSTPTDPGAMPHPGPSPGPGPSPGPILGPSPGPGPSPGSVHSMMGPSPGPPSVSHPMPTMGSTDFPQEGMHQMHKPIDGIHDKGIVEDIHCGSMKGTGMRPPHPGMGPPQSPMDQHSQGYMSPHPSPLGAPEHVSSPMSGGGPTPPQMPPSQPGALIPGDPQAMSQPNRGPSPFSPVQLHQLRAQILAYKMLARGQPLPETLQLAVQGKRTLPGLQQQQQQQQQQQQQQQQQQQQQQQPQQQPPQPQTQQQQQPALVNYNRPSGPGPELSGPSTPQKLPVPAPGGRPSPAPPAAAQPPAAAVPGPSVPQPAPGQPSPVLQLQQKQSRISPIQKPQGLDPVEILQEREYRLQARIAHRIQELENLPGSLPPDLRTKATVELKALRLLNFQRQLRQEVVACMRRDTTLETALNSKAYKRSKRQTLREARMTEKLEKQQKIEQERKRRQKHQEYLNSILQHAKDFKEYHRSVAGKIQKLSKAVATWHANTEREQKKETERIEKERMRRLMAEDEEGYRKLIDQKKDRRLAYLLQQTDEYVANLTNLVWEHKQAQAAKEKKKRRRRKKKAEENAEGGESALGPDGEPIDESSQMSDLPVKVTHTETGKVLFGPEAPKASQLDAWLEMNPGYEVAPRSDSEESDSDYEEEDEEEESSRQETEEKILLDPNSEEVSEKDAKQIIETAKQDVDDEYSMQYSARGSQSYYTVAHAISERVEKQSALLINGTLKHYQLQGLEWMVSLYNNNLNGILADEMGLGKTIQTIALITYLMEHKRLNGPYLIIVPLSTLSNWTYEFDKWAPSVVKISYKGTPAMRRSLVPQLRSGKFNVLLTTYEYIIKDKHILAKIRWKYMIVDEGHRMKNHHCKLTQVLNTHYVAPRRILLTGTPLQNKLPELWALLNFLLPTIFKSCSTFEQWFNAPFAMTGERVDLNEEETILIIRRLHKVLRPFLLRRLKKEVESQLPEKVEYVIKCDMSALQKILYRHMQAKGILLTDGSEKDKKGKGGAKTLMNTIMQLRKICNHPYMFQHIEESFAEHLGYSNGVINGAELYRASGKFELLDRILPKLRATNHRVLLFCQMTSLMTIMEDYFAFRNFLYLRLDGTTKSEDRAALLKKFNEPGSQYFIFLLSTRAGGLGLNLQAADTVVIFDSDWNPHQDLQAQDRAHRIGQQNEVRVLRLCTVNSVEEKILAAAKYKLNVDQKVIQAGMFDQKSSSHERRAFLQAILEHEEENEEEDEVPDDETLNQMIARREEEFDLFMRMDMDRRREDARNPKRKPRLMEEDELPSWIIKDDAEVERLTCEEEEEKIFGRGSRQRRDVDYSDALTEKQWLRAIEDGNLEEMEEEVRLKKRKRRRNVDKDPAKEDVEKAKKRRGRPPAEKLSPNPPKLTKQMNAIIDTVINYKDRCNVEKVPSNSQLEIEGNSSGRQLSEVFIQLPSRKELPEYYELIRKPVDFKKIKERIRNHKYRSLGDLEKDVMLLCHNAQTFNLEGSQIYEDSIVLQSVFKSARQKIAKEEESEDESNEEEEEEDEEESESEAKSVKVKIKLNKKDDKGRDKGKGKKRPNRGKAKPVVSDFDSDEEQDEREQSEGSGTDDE

BRG-1, sequence (P51532 whole entry): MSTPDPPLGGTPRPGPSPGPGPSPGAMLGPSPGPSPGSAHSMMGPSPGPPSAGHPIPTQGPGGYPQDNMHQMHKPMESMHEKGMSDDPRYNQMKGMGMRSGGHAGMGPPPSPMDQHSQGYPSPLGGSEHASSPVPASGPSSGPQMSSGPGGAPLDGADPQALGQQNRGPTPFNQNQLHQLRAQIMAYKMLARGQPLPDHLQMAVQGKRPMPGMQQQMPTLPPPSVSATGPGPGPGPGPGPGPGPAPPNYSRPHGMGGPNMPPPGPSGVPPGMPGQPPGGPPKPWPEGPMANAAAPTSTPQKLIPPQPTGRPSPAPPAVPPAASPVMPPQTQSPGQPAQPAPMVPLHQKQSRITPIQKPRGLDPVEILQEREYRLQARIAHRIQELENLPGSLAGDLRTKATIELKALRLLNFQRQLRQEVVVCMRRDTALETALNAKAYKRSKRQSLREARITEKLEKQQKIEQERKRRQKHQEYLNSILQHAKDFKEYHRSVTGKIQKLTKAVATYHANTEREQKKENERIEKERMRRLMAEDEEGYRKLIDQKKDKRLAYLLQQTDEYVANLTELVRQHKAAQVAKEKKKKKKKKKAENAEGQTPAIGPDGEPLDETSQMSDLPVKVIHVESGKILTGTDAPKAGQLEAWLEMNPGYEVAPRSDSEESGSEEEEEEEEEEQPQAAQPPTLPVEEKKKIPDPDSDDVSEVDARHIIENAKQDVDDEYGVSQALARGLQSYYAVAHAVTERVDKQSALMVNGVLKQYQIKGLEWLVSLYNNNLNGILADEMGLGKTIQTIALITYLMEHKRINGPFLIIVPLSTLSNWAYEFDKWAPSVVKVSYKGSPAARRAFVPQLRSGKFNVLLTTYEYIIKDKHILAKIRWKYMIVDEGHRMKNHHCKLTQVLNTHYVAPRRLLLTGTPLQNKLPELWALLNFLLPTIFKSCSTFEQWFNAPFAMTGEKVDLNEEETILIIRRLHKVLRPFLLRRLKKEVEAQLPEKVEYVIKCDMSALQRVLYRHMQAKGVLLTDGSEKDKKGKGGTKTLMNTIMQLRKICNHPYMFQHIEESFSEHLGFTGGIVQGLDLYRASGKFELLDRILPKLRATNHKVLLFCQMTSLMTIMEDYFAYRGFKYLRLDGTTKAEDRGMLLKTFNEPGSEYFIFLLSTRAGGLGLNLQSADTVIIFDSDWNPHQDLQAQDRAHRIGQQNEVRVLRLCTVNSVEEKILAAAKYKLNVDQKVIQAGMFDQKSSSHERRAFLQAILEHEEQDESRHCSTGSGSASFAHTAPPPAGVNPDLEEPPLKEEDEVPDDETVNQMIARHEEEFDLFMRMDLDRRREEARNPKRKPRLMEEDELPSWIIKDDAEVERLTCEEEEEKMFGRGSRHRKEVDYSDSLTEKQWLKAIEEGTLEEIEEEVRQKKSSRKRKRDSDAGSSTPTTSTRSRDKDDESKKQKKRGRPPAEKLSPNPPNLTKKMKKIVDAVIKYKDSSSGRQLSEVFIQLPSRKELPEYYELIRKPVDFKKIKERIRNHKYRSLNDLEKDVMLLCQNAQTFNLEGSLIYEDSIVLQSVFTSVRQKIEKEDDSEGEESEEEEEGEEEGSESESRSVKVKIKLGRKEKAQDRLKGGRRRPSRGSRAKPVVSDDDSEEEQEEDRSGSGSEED

| IC50 [1] [nM] | BRG1 Max % Inhibition [1] [%] | IC50 [2] [nM] | BRM Max % Inhibition [2] [%] | Structure (SMILES) |
| --- | --- | --- | --- | --- |
| < 100 | >95 | < 100 | >95 | CC(=O)N(C)c1cc(-c2cccc(-c3csc(NC(=O)CNC(=O)c4ccc(N)cc4)n3)c2)ccn1 [Compound 183, 4-amino-N-(2-((4-(3-(2-(N-methylacetamido)pyridin-4-yl)phenyl)thiazol-2-yl)amino)-2-oxoethyl)benzamide] |
| < 100 | >70 | < 100 | >80 | Nc1ccc(C(=O)NCC(=O)Nc2nc(-c3cccc(-c4ccncc4)c3)cs2)nc1 [Compound 184, 5-amino-N-(2-oxo-2-((4-(3-(pyridin-4-yl)phenyl)thiazol-2-yl)amino)ethyl)picolinamide] |
| 100 to 1000 | >70 | 100 to 1000 | >80 | Nc1ccc(C(=O)NCC(=O)Nc2nc(-c3cccc(N4CCS(=O)(=O)CC4)c3)cs2)cc1 [Compound 185, 4-amino-N-(2-((4-(3-(1,1-dioxidothiomorpholino)phenyl)thiazol-2-yl)amino)-2-oxoethyl)benzamide] |
| 100 to 1000 | >95 | 100 to 1000 | >95 | CN(C)CCNC(=O)Cc1cc(-c2cccc(-c3csc(NC(=O)CNC(=O)c4ccc(N)cc4)n3)c2)ccn1 [Compound 186, 4-amino-N-[2-[[4-[3-[2-[2-[2-(dimethylamino)ethylamino]-2-oxo-ethyl]-4-pyridyl]phenyl]thiazol-2-yl]amino]-2-oxo-ethyl]benzamide] |
| 100 to 1000 | >60 | 100 to 1000 | >70 | Nc1ccc(C(=O)NCC(=O)Nc2nc(-c3cccc(N4CCC(C(=O)O)CC4)c3)cs2)cc1 [Compound 187, 1-[3-[2-[[2-[(4-aminobenzoyl)amino]acetyl]amino]thiazol-4-yl]phenyl]piperidine-4-carboxylic acid] |
| < 100 | >80 | < 100 | >95 | Cc1ccc(-c2csc(NC(=O)CNC(=O)c3ccc(N)cc3)n2)cc1-c1ccncc1 [Compound 188, 4-amino-N-[2-[[4-[4-methyl-3-(4-pyridyl)phenyl]thiazol-2-yl]amino]-2-oxo-ethyl]benzamide] |
| 100 to 1000 | >90 | 100 to 1000 | >90 | CN(C)CCNc1cc(-c2cccc(-c3csc(NC(=O)CNC(=O)c4ccc(N)cc4)n3)c2)ccn1 [Compound 189, 4-amino-N-[2-[[4-[3-[2-[2-(dimethylamino)ethylamino]-4-pyridyl]phenyl]thiazol-2-yl]amino]-2-oxo-ethyl]benzamide] |
| 100 to 1000 | >80 | 100 to 1000 | >80 | CN1CCN(c2cc(-c3cccc(-c4csc(NC(=O)CNC(=O)c5ccc(N)cc5)n4)c3)ccn2)CC1 [Compound 190, 4-amino-N-[2-[[4-[3-[2-(4-methylpiperazin-1-yl)-4-pyridyl]phenyl]thiazol-2-yl]amino]-2-oxo-ethyl]benzamide] |
| 100 to 1000 | >95 | < 100 | >95 | CN(C)CCN(C)c1cc(-c2cccc(-c3csc(NC(=O)CNC(=O)c4ccc(N)cc4)n3)c2)ccn1 [Compound 191, 4-amino-N-[2-[[4-[3-[2-[2-(dimethylamino)ethyl-methyl-amino]-4-pyridyl]phenyl]thiazol-2-yl]amino]-2-oxo-ethyl]benzamide] |
| 100 to 1000 | >90 | 100 to 1000 | >90 | Nc1ccc(C(=O)NCC(=O)Nc2nc(-c3ccc4[nH]ncc4c3)cs2)cc1 [Compound 192] |
| 100 to 1000 | >90 | 100 to 1000 | >80 | Nc1cnc(C(=O)NCC(=O)Nc2nc(-c3cccc(-c4ccncc4)c3)cs2)nc1 [Compound 193, 5-amino-N-[2-oxo-2-[[4-[3-(4-pyridyl)phenyl]thiazol-2-yl]amino]ethyl]pyrimidine-2-carboxamide] |
| 100 to 1000 | >80 | 100 to 1000 | >90 | Cc1cnccc1-c1cccc(-c2csc(NC(=O)CNC(=O)c3ccc(N)cc3)n2)c1 [Compound 194, 4-amino-N-[2-[[4-[3-(3-methyl-4-pyridyl)phenyl]thiazol-2-yl]amino]-2-oxo-ethyl]benzamide] |
| < 100 | >95 | < 100 | >95 | Cc1cc(-c2cccc(-c3csc(NC(=O)CNC(=O)c4ccc(N)cc4)n3)c2)ccn1 [Compound 195, 4-amino-N-[2-[[4-[3-(2-methyl-4-pyridyl)phenyl]thiazol-2-yl]amino]-2-oxo-ethyl]benzamide] |
| 100 to 1000 | >90 | 100 to 1000 | >95 | CNCc1cc(-c2cccc(-c3csc(NC(=O)CNC(=O)c4ccc(N)cc4)n3)c2)ccn1 [Compound 196, 4-amino-N-[2-[[4-[3-[2-(methylaminomethyl)-4-pyridyl]phenyl]thiazol-2-yl]amino]-2-oxo-ethyl]benzamide] |
| < 100 | >80 | < 100 | >90 | Nc1ccc(C(=O)NCC(=O)Nc2nc(-c3cccc(COc4ccncc4)c3)cs2)cc1 [Compound 197, 4-amino-N-[2-oxo-2-[[4-[3-(4-pyridyloxymethyl)phenyl]thiazol-2-yl]amino]ethyl]benzamide] |
| 100 to 1000 | >60 | 100 to 1000 | >80 | CC(C)(O)c1cccc(-c2csc(NC(=O)CNC(=O)c3ccc(N)cc3)n2)c1 [Compound 198, 4-amino-N-[2-[[4-[3-(1-hydroxy-1-methyl-ethyl)phenyl]thiazol-2-yl]amino]-2-oxo-ethyl]benzamide] |
| 100 to 1000 | >95 | 100 to 1000 | >95 | COc1cc(-c2cccc(-c3csc(NC(=O)CNC(=O)c4ccc(N)cn4)n3)c2)ccn1 [Compound 199, 5-amino-N-[2-[[4-[3-(2-methoxy-4-pyridyl)phenyl]thiazol-2-yl]amino]-2-oxo-ethyl]pyridine-2-carboxamide] |
| < 100 | >95 | < 100 | >95 | CN(CC(=O)O)c1cc(-c2cccc(-c3csc(NC(=O)CNC(=O)c4ccc(N)cc4)n3)c2)ccn1 [Compound 200, 2-[[4-[3-[2-[[2-[(4-aminobenzoyl)amino]acetyl]amino]thiazol-4-yl]phenyl]-2-pyridyl]-methyl-amino]acetic acid] |
| < 100 | >95 | < 100 | >95 | CNC(=O)CN(C)c1cc(-c2cccc(-c3csc(NC(=O)CNC(=O)c4ccc(N)cc4)n3)c2)ccn1 [Compound 202, 4-amino-N-[2-[[4-[3-[2-[methyl-[2-(methylamino)-2-oxo-ethyl]amino]-4-pyridyl]phenyl]thiazol-2-yl]amino]-2-oxo-ethyl]benzamide] |
